Test results as given in patent publication US4415566A, “Cephalosporin derivatives” (Boehringer Ingelheim GmbH, priority 1979, dated 1983).
In brackets after ≈: the same amount, converted by molar mass. Where two headings read alike, the source gives them in different places.

Columns and labels:
[1] = test system: Escherichia coli ATCC 11 775; assay: Serial dilution test in the microtiter system (MIC), E. Coli ATCC 11775; format: cell-based
Method: (§1) These tests were performed according to the method of the serial dilution test in the microtiter system. The effect of the substances on bacteriostasis was examined in a fluid medium. […] A nutrient medium of the following composition was used. 10 gm of peptone, 8 gm of meat extract-oxoid, 3 gm of sodium chloride, 2 gm of sec. sodium phosphate were diluted with distilled water to […] (pH 7.2-7.4). Only in the test against streptococci 1% of glucose was added. The age of the primary cultures was about 20 hours. The standardization of the pathogen suspension was effected by using a photometer according to "Eppendorf" (test tube dismeter 14 mm, filter 546 nm) with the aid of the turbidity of a comparison suspension consisting of barium sulfate, this suspension being prepared by addition of 3.0 ml of 1% barium chloride solution to 97 ml of 1% sulfuric acid. After the standardization, streptococcus aronson were further diluted to a concentration of 1:15 and the other microorganisms to a concentration of 1:1500 by means of a sodium chloride solution.
(§2) 16 mg of the test substance were put into a 10 ml-measuring flask and filled up to the mark with the solvent. The further dilution series was standardized with distilled water or the respective solvent.
(§3) The cavities of the microtiter plates were filled with 0.2 ml of nutrient medium. Then, 0.01 ml of the corresponding test substance dilution was added and inoculated with 0.01 ml of the standardized suspension. The bacteria were incubated at 37° C. for 18-20 hours. Control tests merely using the solvent were carried out simultaneously.
(§4) The measurement was carried out macroscopically to determine the minimal inhibitory (threshold) concentration, i.e. the lower still bacteriostatically effective concentration.
(§5) Staphylococcus aureus SG 511, Escherichia coli ATCC 11 775, Pseudomonas aeruginosa Hamburgensis and Pseudomonas aeruginosa Walter, Serratia marcescens ATCC 13880, Klebsiella pneumoniae ATCC 10 031 and 272, Proteus mirabilis Hamburgensis, Proteus rettgeri, Enterbacter cloaceae ATCC 13 047 and E. Coli R+TEM (β-lactamase carrier).

[2] = test system: Proteus mirabilis Hamburgensis; assay: Serial dilution test in the microtiter system (MIC), Prot. mirabilis; format: cell-based
Method: as §1, §2, §3, §4, §5

[3] = test system: Staphylococcus aureus SG 511; assay: Serial dilution test in the microtiter system (MIC), S. aureus SG 511; format: cell-based
Method: as §1, §2, §3, §4, §5

[4] = test system: Klebsiella pneumoniae 272; assay: Serial dilution test in the microtiter system (MIC), Klebs. pneum. 272; format: cell-based
Method: as §1, §2, §3, §4, §5

[5] = test system: Klebsiella pneumoniae ATCC 10 031; assay: Serial dilution test in the microtiter system (MIC), Klebs. pneum. ATCC 10031; format: cell-based
Method: as §1, §2, §3, §4, §5

Proteus rettgeri = assay: Serial dilution test in the microtiter system (MIC), Prot. rettgeri; format: cell-based; details: Providencia rettgeri, 37° C., 18-20 hours, read-out: MIC
Method: as §1, §2, §3, §4, §5

[6] = test system: Pseudomonas aeruginosa Hamburgensis; assay: Serial dilution test in the microtiter system (MIC), Pseud. aerug. Hbg.; format: cell-based; details: Pseud. aerug. Hbg., 37° C., 18-20 hours, read-out: MIC
Method: as §1, §2, §3, §4, §5

[7] = test system: Pseudomonas aeruginosa Walter; assay: Serial dilution test in the microtiter system (MIC), Pseud. aerug. Walter; format: cell-based
Method: as §1, §2, §3, §4, §5

[8] = test system: Enterbacter cloaceae ATCC 13 047; assay: Serial dilution test in the microtiter system (MIC), Eb. cloaceae ATCC 13047; format: cell-based
Method: as §1, §2, §3, §4, §5

[9] = test system: Serratia marcescens ATCC 13880; assay: Serial dilution test in the microtiter system (MIC), Serrat. marcesc. ATCC 13880; format: cell-based
Method: as §1, §2, §3, §4, §5

E. Coli ATCC 9637 = assay: Serial dilution test in the microtiter system (MIC), E. Coli ATCC 9637; format: cell-based; details: Escherichia coli, ATCC9637
[10] = test system: Psuedomonas aeruginosa Walter; assay: In vivo activity in mice, Pseudomonas infection; set-up: species or system Female NMRI mice; details: Mus musculus, iPSC, sc, 168 h; Pseudomonas infection i.p.; s.c. administration; per dose; observation 7 days; read-out: ED50 (dose at which 50% of the animals survived)
Method: (§6) A number of compounds of this invention were tested in vivo in mice against experimental infections. Bacteria E. coli ATCC 11775 and Psuedomonas aeruginosa Walter were used as pathogens. An intraperitoneal infection with 0.2 ml of a 5% suspension of the bacteria was induced. This corresponds to about 2×10^6 E. Coli germs and 8×10^5 pseudomonas germs/mouse. […] The groups with E. coli infection were treated with the test compound three times on the first day (1, 4, and 7 hours post infectionem) and for two days thereafter twice a day. The groups with the pseudomonas infection were treated with the test compound 6 times on the first day (1, 3, 6, 9, 12 and 15 hours post infectionem) and for two days thereafter twice a day. The observation time was in both cases 7 days. The results of these tests with representatives of the penicillins and cephalosporins according to the invention are shown in the following table: […]

E. coli ATCC 11775 = assay: In vivo activity in mice, E. coli infection; set-up: species or system Female NMRI mice; details: Escherichia coli, ATCC11775, iPSC, sc, 168 h; E. coli infection i.p.; s.c. administration; per dose; observation 7 days; read-out: ED50 (dose at which 50% of the animals survived)
Method: as §6

[11] = Table IV, Klebs. pneum. ATCC 10031, 37° C., 18-20 hours, read-out: MIC
[12] = Table III, E. Coli ATCC 11775, 37° C., 18-20 hours, read-out: MIC
[13] = Table III, Prot. mirabilis, 37° C., 18-20 hours, read-out: MIC
[14] = Table III, Pseud. aerug. Walter, 37° C., 18-20 hours, read-out: MIC
[15] = ATCC13880, Table III, Serrat. marcesc. ATCC 13880, 37° C., 18-20 hours, read-out: MIC
[16] = Table III, E. Coli ATCC 9637, 37° C., 18-20 hours, read-out: MIC

SMILES	MIC [1] [µg/mL]	MIC [2] [µg/mL]	MIC [4]; 272 [µg/mL]	MIC [5, 11] [µg/mL]	MIC (Proteus rettgeri; Table III, Prot. rettgeri) [µg/mL]	MIC [1, 12] [µg/mL]	MIC ([6]; Table III) [µg/mL]	MIC [2, 13] [µg/mL]	MIC [7, 14] [µg/mL]	MIC [8] [µg/mL]	MIC [9, 15] [µg/mL]	MIC (E. Coli ATCC 9637; [16]) [µg/mL]	MIC [5] [µg/mL]	MIC [7] [µg/mL]	other results
Cc1nnc(SCC2=C(C(=O)O)N3C(=O)[C@@H](NC(=O)Cn4cnnn4)[C@H]3SC2)s1 [Cephazolin, reference compound]	4 (≈ 8.8 µM)	4 (≈ 8.8 µM)	2 (≈ 4.4 µM)	1 (≈ 2.2 µM)	–	–	–	–	–	–	–	–	–	–	MIC ([3]; SG511, Table IV, S. aureus SG 511, 37° C., 18-20 hours, read-out: MIC): 0.06 µg/mL (≈ 0.132 µM)
CC1(C)S[C@@H]2[C@H](NC(=O)[C@H](NC(=O)Nc3cnc(Nc4ccc(S(C)(=O)=O)nc4)nc3O)c3ccc(O)cc3)C(=O)N2[C@H]1C(=O)O [Compound E, D-α-{3-[4-Hydroxy-2-(6'-methylsulfonyl-3'-pyridylamino)-5-pyrimidinyl]-ureido}-p-hydroxy-benzyl-penicillin sodium]	–	–	2	–	0.25	0.2	1	0.06	1	2	0.2	0.2	2	–	–
CC1(C)S[C@@H]2[C@H](NC(=O)[C@H](NC(=O)Nc3cnc(NCc4ccco4)nc3O)c3ccc(O)cc3)C(=O)N2[C@H]1C(=O)O [D, D-α-{3-[4-Hydroxy-2-(2'-furylmethylamino)-5-pyrimidinyl]-ureido}-p-hydroxy-benzyl-penicillin sodium]	1	0.25	–	–	0.5	–	1	–	–	4	0.5	0.5	4	2	ED50 [10]: 1.5 mg/kg; ED50 (E. coli ATCC 11775): 0.8 mg/kg; MIC ([4]; Table III, Klebs. pneum. 272, 37° C., 18-20 hours, read-out: MIC): 8 µg/mL
Cc1ncc(CNc2ncc(NC(=O)N[C@@H](C(=O)N[C@@H]3C(=O)N4[C@@H]3SC(C)(C)[C@@H]4C(=O)O)c3ccc(O)cc3)c(O)n2)cn1 [F, D-α-{3-[4-Hydroxy-2-(2'-methyl-5'-pyrimidinylmethylamino)-5-pyrimidinyl]-ureido}-p-hydroxy-benzyl-penicillin sodium]	–	–	8	–	0.5	0.5	–	0.06	1	4	0.5	–	8	–	MIC (E. Coli ATCC 9637): 0.5 µg/mL
CC1(C)S[C@@H]2[C@H](NC(=O)[C@H](NC(=O)Nc3cnc(Nc4ccc(O)nc4)nc3O)c3ccc(O)cc3)C(=O)N2[C@H]1C(=O)O [G, D-α-{3-[4-Hydroxy-2-(6'-hydroxy-3'-pyridylamino)-5-pyrimidinyl]-ureido}-p-hydroxy-benzyl-penicillin sodium]	–	–	4	–	0.5	0.2	0.5	0.01	0.5	4	0.1	0.2	4	–	–
CC(=O)OCC1=C(C(=O)O)N2C(=O)[C@@H](NC(=O)[C@H](NC(=O)Nc3cnc(NCc4ccco4)nc3O)c3ccc(O)cc3)[C@H]2SC1 [K]	–	–	–	1 (≈ 1.53 µM)	–	–	–	–	–	4 (≈ 6.12 µM)	–	–	–	8 (≈ 12.2 µM)	MIC (Proteus rettgeri; Table IV, Prot. rettg.): 1 µg/mL (≈ 1.53 µM); MIC ([1]; Table IV, E. Coli ATCC 11775, 37° C., 18-20 hours, read-out: MIC): 0.5 µg/mL (≈ 0.765 µM); MIC ([6]; Table IV): 16 µg/mL (≈ 24.5 µM); MIC ([2]; Table IV, Prot. mir. Hbg., 37° C., 18-20 hours, read-out: MIC): 0.25 µg/mL (≈ 0.382 µM); MIC ([9]; ATCC13880): 2 µg/mL (≈ 3.06 µM); MIC ([3]; SG511): 1 µg/mL (≈ 1.53 µM); MIC ([4]; Table IV, Klebs. pneum. 272, 37° C., 18-20 hours, read-out: MIC): 1 µg/mL (≈ 1.53 µM)
